The source of these data is patent US9938258B2 (Karyopharm Therapeutics Inc., priority 2012, dated 2018).

pIC50: −log10 of the molar value. Where two headings read alike, the source gives them in different places.

The test system of one test is Z138 cells. As to the kind of experiment: MTT cell proliferation assay, Z138. It is filed as cell-based. As to conditions: Homo sapiens, Z-138, Z138 cells, read-out: MTT Assay IC50, Z138. As to the method:
(§1) The MTT cell proliferation assay was used to study the cytotoxic properties of the compounds. The assay was performed according to the method described by Roche Molecular Biochemicals, with minor modifications. The assay is based on the cleavage of the tetrazolium salt, MTT, in the presence of an electron-coupling reagent. The water-insoluble formazan salt produced must be solubilized in an additional step. Cells grown in a 96-well tissue culture plate were incubated with the MTT solution for approximately 4 hours. After this incubation period, a water-insoluble formazan dye formed. After solubilization, the formazan dye was quantitated using a scanning multi-well spectrophotometer (ELISA reader). […] The cells were seeded at 5,000-10,000 cells in each well of 96-well plate in 100 μL of fresh culture medium and were allowed to attach overnight. The stock solutions of the compounds were diluted in 100 μL cell culture medium to obtain eight concentrations of each test compound, ranging from 1 nM to 30 μM. […] All optical densities were measured at 490 nm using a Vmax Kinetic Microplate Reader (Molecular Devices). In most cases, the assay was performed in duplicate and the results were presented as a mean percent inhibition to the negative control±SE. The following formula was used to calculate the percent of inhibition: Inhibition (%)=(1-(ODo/OD)) ×100.
(§2) The compounds were tested against MS751, Z138 and 3T3 cells. The MS751 cell line is derived from a metastasis to lymph node of human cervix from a patient diagnosed with squameous cell carcinoma of the cervix. The Z138 cell line is a mature B-cell acute lymphoblastic leukemia cell line derived from a patient with chronic lumphocytic leukemia. 3T3 cells are standard fibroblast cells; they were originally isolated from Swiss mouse embryo tissue.

The subject of a further test is MS751 cells. As to the kind of experiment: MTT cell proliferation assay, MS751. It is filed as cell-based, human. The following applies: Homo sapiens, MS751, MS751 cells, read-out: MTT Assay IC50, MS751. The procedure:
as §1, §2

The subject of the next test is 3T3 cells. The test can be described thus: MTT cell proliferation assay, 3T3. As to conditions: Mus musculus, NIH3T3, 3T3 cells, read-out: MTT Assay IC50, 3T3. It is filed as cell-based, mouse. As to the method: as §1, §2
[1] abbreviates: eight concentrations 1 nM to 30 μM, incubation approximately 64-72 hours.
The mark [2] stands for this setting: approximately 64-72 hours incubation.

Turning to `Nc1ccccc1-c1cc(Cl)c2c(c1)CC(CNC(=O)/C=C/c1cccnc1)O2` (stereo not drawn) [Compound 84, (E)-N-((5-(2-aminophenyl)-7-chloro-2,3-dihydrobenzofuran-2-yl)methyl)-3-(pyridin-3-yl)acrylamide], the results for the pIC50 with Z138 cells (setting [1]), with MS751 cells (setting [1]) and with 3T3 cells (setting [1]) were 5.30 to 7.00, 5.30 to 7.00 and 4.52 to 5.30, respectively.

In the case of `Nc1ccc(/C=C/C(=O)NCC2Cc3c(-c4ccc(C(=O)N5CCOCC5)cc4)ccc(Cl)c3O2)cn1` (stereo not drawn) [Compound 249, (E)-3-(6-aminopyridin-3-yl)-N-((7-chloro-4-(4-(morpholine-4-carbonyl)phenyl)-2,3-dihydrobenzofuran-2-yl)methyl)acrylamide], the pIC50 in the test on Z138 cells (setting [2]) is over 7.00; in the test on MS751 cells (setting [2]), over 7.00; with 3T3 cells (setting [2]), 5.30 to 7.00.

For the compound `CC(=O)c1ccc(-c2cc(Cl)c3c(c2)CC(CNC(=O)/C=C/c2ccc(C)nc2C)O3)s1` (stereo not drawn) [Compound 174, (E)-N-((5-(5-acetylthiophen-2-yl)-7-chloro-2,3-dihydrobenzofuran-2-yl)methyl)-3-(2,6-dimethylpyridin-3-yl)acrylamide], the pIC50 in the test on Z138 cells (setting [1]), in the test with MS751 cells (setting [1]) and in the test with 3T3 cells (setting [1]) was under 4.52 in each case.

With `Nc1ccc(CNC(=O)/C=C/C2Cc3cc(-c4cccc(S(=O)(=O)N5CCOCC5)c4)cc(Cl)c3O2)cn1` (stereo not drawn) [Compound 357, (E)-N-((6-aminopyridin-3-yl)methyl)-3-(7-chloro-5-(3-(morpholinosulfonyl)phenyl)-2,3-dihydrobenzofuran-2-yl) acrylamide], the pIC50 in the test with Z138 cells (setting [2]) is 5.30 to 7.00; in the test with MS751 cells (setting [2]), over 7.00; in the test on 3T3 cells (setting [2]), over 7.00.

With `Nc1ccc(/C=C/C(=O)NCC2Cc3cc(-c4ccc(C(=O)N5CCCCC5)cc4)cc(Cl)c3O2)cn1` (stereo not drawn) [Compound 234, (E)-3-(6-aminopyridin-3-yl)-N-((7-chloro-5-(4-(piperidine-1-carbonyl)phenyl)-2,3-dihydrobenzofuran-2-yl)methyl)acrylamide], the values for the pIC50 in the test on Z138 cells (setting [2]), in the test with MS751 cells (setting [2]) and with 3T3 cells (setting [2]) were over 7.00, over 7.00 and 4.52 to 5.30, respectively.

Consider `Nc1ccc(/C=C/C(=O)NCC2Cc3cc(-c4ccc(C(=O)C(=O)N5CCOCC5)cc4)cc(Cl)c3O2)cn1` (stereo not drawn) [Compound 909, (E)-3-(6-aminopyridin-3-yl)-N-((7-chloro-5-(4-(2-morpholino-2-oxoacetyl)phenyl)-2,3-dihydrobenzofuran-2-yl)methyl)acrylamide], for which the pIC50 is over 7.00 with Z138 cells (setting [2]), over 7.00 with MS751 cells (setting [2]) and 5.30 to 7.00 with 3T3 cells (setting [2]).

With `CC(=O)c1ccc(-c2cc(Cl)c3c(c2)CC(CNC(=O)/C=C/c2cnccn2)O3)s1` (stereo not drawn) [Compound 258, (E)-N-((5-(5-acetylthiophen-2-yl)-7-chloro-2,3-dihydrobenzofuran-2-yl)methyl)-3-(pyrazin-2-yl)acrylamide], the pIC50 with Z138 cells (setting [1]), in the test with MS751 cells (setting [1]) and in the test on 3T3 cells (setting [1]) was under 4.52 each time.

Regarding `Nc1ccc(/C=C/C(=O)NCC2Cc3cc(-c4cc(F)c(C(=O)N5CCOCC5)cc4F)cc(Cl)c3O2)cn1` (stereo not drawn) [Compound 328, (E)-3-(6-Aminopyridin-3-yl)-N-((7-chloro-5-(2,5-difluoro-4-(morpholine-4-carbonyl)phenyl)-2,3-dihydrobenzofuran-2-yl)methyl)acrylamide], the pIC50 in the test on Z138 cells (setting [2]) is over 7.00; in the test with MS751 cells (setting [2]), over 7.00; in the test with 3T3 cells (setting [2]) it was 5.30 to 7.00.

Turning to `Cc1cc(-c2cc(Cl)c3c(c2)CC(CNC(=O)/C=C/c2ccc(N)nc2)O3)ccc1C(=O)N1CCOCC1` (stereo not drawn) [Compound 238, (E)-3-(6-aminopyridin-3-yl)-N-((7-chloro-5-(3-methyl-4-(morpholine-4-carbonyl)phenyl)-2,3-dihydrobenzofuran-2-yl)methyl)acrylamide], the pIC50 is over 7.00 with Z138 cells (setting [2]), over 7.00 with MS751 cells (setting [2]) and 5.30 to 7.00 in the test on 3T3 cells (setting [2]).
